Measured values from PubChem BioAssay (NCI).
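Tested at 5 concentrations; 48 h exposure; 96-well plates; endpoints linearly interpolated, else capped at highest concentration. GI50: concentration for 50% inhibition of growth. Definition used: TGI = concentration required for complete inhibition of growth.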

Tests used:
Test in all cases: NCI-60 cell line screen, 48 h
K-562 leukemia = test system: K-562 leukemia
BT-549 breast = test system: BT-549 breast
SF-295 CNS = test system: SF-295 CNS
KM12 colon = test system: KM12 colon
NCI-H460 lung = test system: NCI-H460 lung
CCRF-CEM leukemia = test system: CCRF-CEM leukemia
NCI/ADR-RES ovarian = test system: NCI/ADR-RES ovarian
HCC-2998 colon = test system: HCC-2998 colon
SF-268 CNS = test system: SF-268 CNS
MOLT-4 leukemia = test system: MOLT-4 leukemia
786-0 renal = test system: 786-0 renal
MALME-3M melanoma = test system: MALME-3M melanoma
MDA-MB-231 breast = test system: MDA-MB-231 breast
M14 melanoma = test system: M14 melanoma
HS 578T breast = test system: HS 578T breast
OVCAR-3 ovarian = test system: OVCAR-3 ovarian
RXF 393 renal = test system: RXF 393 renal
UACC-62 melanoma = test system: UACC-62 melanoma
DU-145 prostate = test system: DU-145 prostate
SN12C renal = test system: SN12C renal
HL-60(TB) leukemia = test system: HL-60(TB) leukemia
T-47D breast = test system: T-47D breast
RPMI-8226 leukemia = test system: RPMI-8226 leukemia
MDA-MB-435 = test system: MDA-MB-435
HCT-116 colon = test system: HCT-116 colon
CAKI-1 renal = test system: CAKI-1 renal
SK-MEL-5 melanoma = test system: SK-MEL-5 melanoma
SK-MEL-2 melanoma = test system: SK-MEL-2 melanoma
COLO 205 colon = test system: COLO 205 colon

Brc1ccc(N/N=C/c2c[nH]c3ccc(Br)cc23)nc1
GI50 (K-562 leukemia): 2.73 µM
TGI (K-562 leukemia): > 100 µM
GI50 (BT-549 breast): 0.259 µM
TGI (BT-549 breast): 5.39 µM
GI50 (SF-295 CNS): 1.74 µM
TGI (SF-295 CNS): 3.56 µM
GI50 (KM12 colon): 1.67 µM
TGI (KM12 colon): 5.88 µM
GI50 (NCI-H460 lung): 2.7 µM
TGI (NCI-H460 lung): 8.64 µM
GI50 (CCRF-CEM leukemia): 1.27 µM
TGI (CCRF-CEM leukemia): > 100 µM
GI50 (NCI/ADR-RES ovarian): 2.79 µM
TGI (NCI/ADR-RES ovarian): 12.4 µM
GI50 (HCC-2998 colon): 1.74 µM
TGI (HCC-2998 colon): 3.55 µM
GI50 (SF-268 CNS): 1.84 µM
TGI (SF-268 CNS): 13.9 µM
GI50 (MOLT-4 leukemia): 0.644 µM
TGI (MOLT-4 leukemia): 18.5 µM
GI50 (786-0 renal): 2.5 µM
TGI (786-0 renal): 8.24 µM
GI50 (MALME-3M melanoma): 3.26 µM
TGI (MALME-3M melanoma): 15.3 µM
GI50 (MDA-MB-231 breast): 1.44 µM
TGI (MDA-MB-231 breast): 3.64 µM
GI50 (M14 melanoma): 2.03 µM
TGI (M14 melanoma): 5.31 µM
GI50 (HS 578T breast): 2.13 µM
TGI (HS 578T breast): 8.29 µM
GI50 (OVCAR-3 ovarian): 2.69 µM
TGI (OVCAR-3 ovarian): 9.13 µM
GI50 (RXF 393 renal): 1.85 µM
TGI (RXF 393 renal): 5.64 µM
GI50 (UACC-62 melanoma): 0.862 µM
TGI (UACC-62 melanoma): 10.9 µM
GI50 (DU-145 prostate): 4.55 µM
TGI (DU-145 prostate): 16 µM
GI50 (SN12C renal): 1.05 µM
TGI (SN12C renal): 9.73 µM
GI50 (HL-60(TB) leukemia): 1.7 µM
TGI (HL-60(TB) leukemia): 18.7 µM
GI50 (T-47D breast): 1.97 µM
TGI (T-47D breast): 12 µM
GI50 (RPMI-8226 leukemia): 1.47 µM
TGI (RPMI-8226 leukemia): 8.12 µM
GI50 (MDA-MB-435): 3.45 µM
TGI (MDA-MB-435): 14.1 µM
GI50 (HCT-116 colon): 2.68 µM
TGI (HCT-116 colon): 10.6 µM
GI50 (CAKI-1 renal): 1.6 µM
TGI (CAKI-1 renal): 9.87 µM
GI50 (SK-MEL-5 melanoma): 2.56 µM
TGI (SK-MEL-5 melanoma): 8.54 µM
GI50 (SK-MEL-2 melanoma): 2.92 µM
TGI (SK-MEL-2 melanoma): 11.9 µM
GI50 (COLO 205 colon): 2.07 µM
TGI (COLO 205 colon): 5 µM
